Laboratory results published in patent US7687512B2, “Use of pyridinyl-pyrimidinylamino-benzamide derivatives for the treatment of amyloid related disorders” (Novartis AG, priority 2003, dated 2010).

Assays:
Abeta secretion = conditions: HEK/APPswe cell cultures, at concentrations below 10 microM
Description: HEK/APPswe cells are plated in microtiter plates precoated with 10 μg/ml poly-D-lysine at 12,000 cells/well in 100 μl/well DMEM medium supplemented with 10% FCS, 0.25 mg/ml G418 sulfate, 1% penicillin streptomycin. The following day, supernatant is replaced with 90 μl/well of fresh medium and 10 μl/well of compound diluted in culture medium are added. Two types of control wells are used: cell culture medium without cells plus 10 μl/well of all compound dilutions (background signals) and cell culture medium from untreated cells (positive control). 24 hours later after compound addition, conditioned medium is collected and Aβ levels determined by a specific sandwich ELISA.
For the sandwich ELISA, the maxisorp microtiterplates are coated overnight at 4° C. with 100 μl/well of the monoclonal antibody 25H10 diluted 1:1000 in PB for Aβ40 detection or monoclonal antibody B10E7 diluted 1:2750 for detection of Aβ42. […] After 1 hour incubation at room temperature wells are washed as described above and alkaline phosphatase activity is determined by adding 100 μl/well of diethanolamine buffer, pH 9.8 (100 mM diethanolamine, 1 mM MgCl2, pH adjusted to 9.8 with 2 M HCl) containing the chemiluminescent CSPD substrate (25 mM stock solution diluted 1:416) and the enhancer Emerald II (diluted 1:10). […] Samples are measured in triplicate. […]

HEK/APPswe cells = conditions: HEK/APPswe cell cultures, at concentrations below 10 microM
Description: To determine cytotoxicity, cells are tested by the MTS colorimetric kit performed essentially according to the manufacturer's specifications (Promega, #G5430X). After collecting the conditioned medium for the sandwich ELISA, the rest of the conditioned medium is removed completely and replaced with 100 μl/well culture medium containing one fifth of MTS solution prepared as recommended in the kit. After 3 hours incubation at 37° C., absorbance is read at an OD of 490 nm with a reference wavelength set to 630 nm. Values are given as % metabolic rate (n=6). The 0% value is calculated from wells which had no cells, 100% from wells with an untreated cell layer

Cc1cn(-c2cc(NC(=O)c3ccc(C)c(Nc4nccc(-c5cccnc5)n4)c3)cc(C(F)(F)F)c2)cn1 [Example 2, 4-Methyl-N-[3-(4-methyl-imidazol-1-yl)-5-trifluoromethyl-phenyl]-3-(4-pyridin-3-yl-pyrimidin-2-ylamino)-benzamide]
reduction of Abeta secretion in the medium (Abeta secretion): clear reduction | effect on cellular viability (HEK/APPswe cells): without having any effect
